Assay results as given in patent US10377753B2, “Substituted 4-azaindoles and their use as GluN2B receptor modulators” (Janssen Pharmaceutica NV, priority 2015, dated 2019).
Where a name gives a salt, the structure may show the parent alone.

Target: cloned human NR1/NR2B ion channels (Homo sapiens (Human), UniProt Q05586+Q13224)
Assay: HNR2BC: effects of test articles on cloned human NR1/NR2B ion channels expressed in mammalian cells (FLIPR calcium flux)
Assay type: cell-based
Details: cloned human NR1/NR2B, Table 5
How it was run: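 Compounds were added to dye-loaded cells for 5 min with fluorescence monitored for agonism, followed by co-agonists (glutamate ~EC80, glycine 10 μM saturating) for 5 min. Cells stably expressed inducible human NR1/NR2B, and the buffer was pH 7.4. The FLIPR Ca2+ flux signal was normalized against control wells.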

cloned human NR1/NR2B ion channels, sequence (Q13224 27-1484, other chains not shown): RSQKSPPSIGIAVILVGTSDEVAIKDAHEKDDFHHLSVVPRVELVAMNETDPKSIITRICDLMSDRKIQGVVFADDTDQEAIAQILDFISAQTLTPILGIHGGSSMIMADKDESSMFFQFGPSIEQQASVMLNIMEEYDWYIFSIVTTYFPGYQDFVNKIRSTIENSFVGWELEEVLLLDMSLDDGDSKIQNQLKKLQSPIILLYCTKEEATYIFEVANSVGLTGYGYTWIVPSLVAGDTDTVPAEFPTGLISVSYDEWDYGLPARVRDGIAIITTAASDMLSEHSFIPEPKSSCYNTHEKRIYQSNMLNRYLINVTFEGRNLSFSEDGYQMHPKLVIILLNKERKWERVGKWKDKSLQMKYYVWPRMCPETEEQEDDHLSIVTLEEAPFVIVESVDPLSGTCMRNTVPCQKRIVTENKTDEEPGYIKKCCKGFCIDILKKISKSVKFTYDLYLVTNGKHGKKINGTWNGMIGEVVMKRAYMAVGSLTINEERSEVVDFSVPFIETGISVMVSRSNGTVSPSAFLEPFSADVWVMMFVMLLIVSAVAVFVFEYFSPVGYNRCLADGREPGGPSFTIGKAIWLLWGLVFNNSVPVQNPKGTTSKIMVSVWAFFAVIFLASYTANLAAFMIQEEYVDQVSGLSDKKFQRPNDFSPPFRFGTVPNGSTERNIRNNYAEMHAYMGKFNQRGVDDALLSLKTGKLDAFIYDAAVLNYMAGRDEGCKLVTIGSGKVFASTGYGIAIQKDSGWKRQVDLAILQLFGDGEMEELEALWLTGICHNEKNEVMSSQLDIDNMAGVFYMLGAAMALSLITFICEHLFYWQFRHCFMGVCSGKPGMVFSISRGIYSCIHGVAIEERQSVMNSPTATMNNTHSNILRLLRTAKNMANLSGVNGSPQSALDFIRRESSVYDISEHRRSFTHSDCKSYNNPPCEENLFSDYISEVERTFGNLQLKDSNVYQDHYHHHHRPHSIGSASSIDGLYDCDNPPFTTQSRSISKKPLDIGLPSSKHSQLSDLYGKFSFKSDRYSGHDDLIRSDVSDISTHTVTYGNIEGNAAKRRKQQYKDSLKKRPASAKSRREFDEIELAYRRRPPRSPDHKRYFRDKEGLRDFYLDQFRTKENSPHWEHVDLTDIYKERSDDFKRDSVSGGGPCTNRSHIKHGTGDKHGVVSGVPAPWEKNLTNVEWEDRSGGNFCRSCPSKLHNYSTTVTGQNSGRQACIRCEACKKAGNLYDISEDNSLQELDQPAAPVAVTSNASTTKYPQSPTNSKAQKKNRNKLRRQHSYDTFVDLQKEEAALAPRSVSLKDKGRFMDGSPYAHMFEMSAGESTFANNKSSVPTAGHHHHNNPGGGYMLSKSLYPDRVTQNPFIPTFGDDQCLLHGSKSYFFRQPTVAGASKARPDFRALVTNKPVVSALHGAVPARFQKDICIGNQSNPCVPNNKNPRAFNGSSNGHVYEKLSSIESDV

Compound	IC50 [nM]
Cc1cc(-c2cnc3ccn(CC(=O)C4CC4)c3c2)ccc1F [Example 186, 1-Cyclopropyl-2-[6-(4-fluoro-3-methyl-phenyl)pyrrolo[3,2-b]pyridin-1-yl]ethanone trifluoroacetate salt]	39.8
Cc1cc(-c2cnc3ccn(CC(=O)C(C)C)c3c2)ccc1F [Example 187, 1-[6-(4-Fluoro-3-methyl-phenyl)pyrrolo[3,2-b]pyridin-1-yl]-3-methyl-butan-2-one trifluoroacetate salt]	50.1
Cc1cc(-c2cnc3ccn(CC(=O)N4CCC(O)CC4)c3c2)ccc1F [Example 188, 2-[6-(4-Fluoro-3-methyl-phenyl)pyrrolo[3,2-b]pyridin-1-yl]-1-(4-hydroxy-1-piperidyl)ethanone trifluoroacetate salt]	50.1
COC1CCN(C(=O)Cn2ccc3ncc(-c4ccc(F)c(C)c4)cc32)CC1 [Example 190, 2-[6-(4-Fluoro-3-methyl-phenyl)pyrrolo[3,2-b]pyridin-1-yl]-1-(4-methoxy-1-piperidyl)ethanone trifluoroacetate salt]	251
Cc1cc(-c2cnc3ccn(CC(=O)N4CCC(F)CC4)c3c2)ccc1F [Example 191, 2-[6-(4-Fluoro-3-methyl-phenyl)pyrrolo[3,2-b]pyridin-1-yl]-1-(4-fluoro-1-piperidyl)ethanone trifluoroacetate salt]	316
Cc1cc(-c2cnc3ccn(CC(=O)N4CC[C@@H](F)C4)c3c2)ccc1F [Example 201, 2-[6-(4-Fluoro-3-methyl-phenyl)pyrrolo[3,2-b]pyridin-1-yl]-1-[(3R)-3-fluoropyrrolidin-1-yl]ethanone trifluoroacetate salt]	3980
O=C(Cn1ccc2ncc(-c3ccc(F)cc3)cc21)N1CC(O)(C(F)(F)F)C1 [Example 203, 2-[6-(4-Fluorophenyl)pyrrolo[3,2-b]pyridin-1-yl]-1-[3-hydroxy-3-(trifluoromethyl)azetidin-1-yl]ethanone]	398
CN(C(=O)Cn1ccc2ncc(-c3ccc(F)cc3)cc21)C1CC1 [Example 205, N-Cyclopropyl-2-[6-(4-fluorophenyl)pyrrolo[3,2-b]pyridin-1-yl]-N-methyl-acetamide]	50.1
COC1CN(C(=O)Cn2ccc3ncc(-c4ccc(F)cc4)cc32)C1 [Example 207, 2-[6-(4-Fluorophenyl)pyrrolo[3,2-b]pyridin-1-yl]-1-(3-methoxyazetidin-1-yl)ethanone]	316
O=C(Cn1ccc2ncc(-c3ccc(F)cc3)cc21)N1CC(O)C1 [Example 211, 2-[6-(4-Fluorophenyl)pyrrolo[3,2-b]pyridin-1-yl]-1-(3-hydroxyazetidine-1-yl)ethanone]	398
O=C1CCN(C(=O)Cn2ccc3ncc(-c4ccc(F)cc4)cc32)C1 [Example 216, 1-[2-[6-(4-Fluorophenyl)pyrrolo[3,2-b]pyridin-1-yl]acetyl]pyrrolidin-3-one trifluoroacetate salt]	1260
O=C(Cn1ccc2ncc(-c3ccccc3)cc21)C1CC1 [Example 220, 1-Cyclopropyl-2-(6-phenylpyrrolo[3,2-b]pyridin-1-yl)ethanone]	50.1
O=C(Cn1ccc2ncc(-c3ccc(F)cc3)cc21)C1CC1 [Example 222, 1-Cyclopropyl-2-[6-(4-fluorophenyl)pyrrolo[3,2-b]pyridin-1-yl]ethanone]	79.4
Cc1cccc(-c2cnc3ccn(CC(=O)C(C)C)c3c2)c1C [Example 225, 1-[6-(2,3-Dimethylphenyl)pyrrolo[3,2-b]pyridin-1-yl]-3-methyl-butan-2-one]	79.4
CC(C)CNC(=O)Cn1ccc2ncc(-c3ccc(F)cc3)cc21 [Example 234, 2-[6-(4-Fluorophenyl)pyrrolo[3,2-b]pyridin-1-yl]-N-isobutyl-acetamide]	2510
O=C(Cn1ccc2ncc(-c3ccc(F)cc3)cc21)NCC1CC1 [Example 237, N-(Cyclopropylmethyl)-2-[6-(4-fluorophenyl)pyrrolo[3,2-b]pyridin-1-yl]acetamide]	2000

More lines, in order of falling IC50, values ahead:

IC50 [nM]	Compound
15800	O=C(Cn1ccc2ncc(-c3ccc(F)cc3)cc21)NCCF [Example 233, N-(2-Fluoroethyl)-2-[6-(4-fluorophenyl)pyrrolo[3,2-b]pyridin-1-yl]acetamide]
10000	CC1(NC(=O)Cn2ccc3ncc(-c4ccc(F)cc4)cc32)CC1 [Example 232, 2-[6-(4-Fluorophenyl)pyrrolo[3,2-b]pyridin-1-yl]-N-(1-methylcyclopropyl)acetamide]
5010	CCCNC(=O)Cn1ccc2ncc(-c3ccc(F)cc3)cc21 [Example 230, 2-[6-(4-Fluorophenyl)pyrrolo[3,2-b]pyridin-1-yl]-N-propyl-acetamide]
1580	Cc1cc(-c2cnc3ccn(CC(=O)N4CCOC(C)(C)C4)c3c2)ccc1F [Example 197, 1-(2,2-Dimethylmorpholin-4-yl)-2-[6-(4-fluoro-3-methyl-phenyl)pyrrolo[3,2-b]pyridin-1-yl]ethanone trifluoroacetate salt]
1580	O=C(Cn1ccc2ncc(-c3ccc(F)cc3)cc21)N1CC(F)C1 [Example 204, 1-(3-Fluoroazetidin-1-yl)-2-[6-(4-fluorophenyl)pyrrolo[3,2-b]pyridin-1-yl]ethanone]
794	O=C(Cn1ccc2ncc(-c3ccc(F)cc3)cc21)c1ccc(F)cc1 [Example 227, 1-(4-Fluorophenyl)-2-[6-(4-fluorophenyl)pyrrolo[3,2-b]pyridin-1-yl]ethanone]
631	O=C(Cn1ccc2ncc(-c3ccc(F)cc3)cc21)N1CC(F)(F)C1 [Example 213, 1-(3,3-Difluoroazetidin-1-yl)-2-[6-(4-fluorophenyl)pyrrolo[3,2-b]pyridin-1-yl]ethanone]
501	Cc1cccc(-c2cnc3ccn(CC(=O)C4CC4)c3c2)c1 [Example 219, 1-Cyclopropyl-2-[6-(m-tolyl)pyrrolo[3,2-b]pyridin-1-yl]ethanone]
501	CC(C)NC(=O)Cn1ccc2ncc(-c3ccc(F)cc3)cc21 [Example 229, 2-[6-(4-Fluorophenyl)pyrrolo[3,2-b]pyridin-1-yl]-N-isopropyl-acetamide]
398	CCc1cccc(-c2cnc3ccn(CC(=O)C(C)C)c3c2)c1 [Example 224, 1-[6-(3-Ethylphenyl)pyrrolo[3,2-b]pyridin-1-yl]-3-methyl-butan-2-one]
316	O=C(Cn1ccc2ncc(-c3ccc(F)cc3)cc21)N1CC(CO)C1 [Example 206, 2-[6-(4-Fluorophenyl)pyrrolo[3,2-b]pyridin-1-yl]-1-[3-(hydroxymethyl)azetidin-1-yl]ethanone]
316	Cc1cc(-c2cnc3ccn(CC(=O)N4CC5(CC5)C4)c3c2)ccc1F [Example 208, 1-(5-Azaspiro[2.3]hexan-5-yl)-2-[6-(4-fluoro-3-methyl-phenyl)pyrrolo[3,2-b]pyridin-1-yl]ethanone trifluoroacetate salt]
316	N#CC1CN(C(=O)Cn2ccc3ncc(-c4ccc(F)cc4)cc32)C1 [Example 212, 1-[2-[6-(4-Fluorophenyl)pyrrolo[3,2-b]pyridin-1-yl]acetyl]azetidine-3-carbonitrile]
316	O=C(Cn1ccc2ncc(-c3ccc(F)cc3)cc21)N1CCC(F)(F)C1 [Example 217, 1-(3,3-Difluoropyrrolidin-1-yl)-2-[6-(4-fluorophenyl)pyrrolo[3,2-b]pyridin-1-yl]ethanone]
251	Cc1cc(-c2cnc3ccn(CC(=O)N4CCCC4(C)C)c3c2)ccc1F [Example 200, 1-(2,2-Dimethylpyrrolidin-1-yl)-2-[6-(4-fluoro-3-methyl-phenyl)pyrrolo[3,2-b]pyridin-1-yl]ethanone trifluoroacetate salt]
200	Cc1cc(-c2cnc3ccn(CC(=O)N4CCC(C)(O)CC4)c3c2)ccc1F [Example 209, 2-[6-(4-Fluoro-3-methyl-phenyl)pyrrolo[3,2-b]pyridin-1-yl]-1-(4-hydroxy-4-methyl-1-piperidyl)ethanone trifluoroacetate salt]
200	O=C(Cn1ccc2ncc(-c3ccc(F)cc3)cc21)c1ccccc1 [Example 226, 2-[6-(4-Fluorophenyl)pyrrolo[3,2-b]pyridin-1-yl]-1-phenyl-ethanone]
200	Cc1cc(-c2cnc3ccn(Cc4cnn(C)c4)c3c2)ccc1F [Example 236, 6-(4-Fluoro-3-methyl-phenyl)-1-[(1-methylpyrazol-4-yl)methyl]pyrrolo[3,2-b]pyridine]
158	CC1(C)CN(C(=O)Cn2ccc3ncc(-c4ccc(F)cc4)cc32)C1 [Example 215, 1-(3,3-Dimethylazetidin-1-yl)-2-[6-(4-fluorophenyl)pyrrolo[3,2-b]pyridin-1-yl]ethanone]
126	CC1(O)CN(C(=O)Cn2ccc3ncc(-c4ccc(F)cc4)cc32)C1 [Example 202, 2-[6-(4-Fluorophenyl)pyrrolo[3,2-b]pyridin-1-yl]-1-(3-hydroxy-3-methyl-azetidin-1-yl)ethanone]
100	CC1CN(C(=O)Cn2ccc3ncc(-c4ccc(F)cc4)cc32)C1 [Example 214, 2-[6-(4-Fluorophenyl)pyrrolo[3,2-b]pyridin-1-yl]-1-(3-methylazetidin-1-yl)ethanone]
79.4	Cc1cc(-c2cnc3ccn(CC(=O)N4CCC(CF)CC4)c3c2)ccc1F [Example 192, 2-[6-(4-Fluoro-3-methyl-phenyl)pyrrolo[3,2-b]pyridin-1-yl]-1-[4-(fluoromethyl)-1-piperidyl]ethanone trifluoroacetate salt]
79.4	O=C(Cn1ccc2ncc(-c3cccc(F)c3)cc21)C1CC1 [Example 221, 1-Cyclopropyl-2-[6-(3-fluorophenyl)pyrrolo[3,2-b]pyridin-1-yl]ethanone]
79.4	Cc1c(F)ccc(-c2cnc3ccn(CC(=O)C(C)C)c3c2)c1C [Example 223, 1-[6-(4-Fluoro-2,3-dimethyl-phenyl)pyrrolo[3,2-b]pyridin-1-yl]-3-methyl-butan-2-one]
